Results taken from PubChem BioAssay (NCI).
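Tested at 5 concentrations; 48 h exposure; 96-well plates; endpoints linearly interpolated, else capped at highest concentration. Abbreviation: GI50, concentration required for 50% inhibition of growth. TGI: total growth inhibition.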

tested on: MDA-MB-468 breast; assay: NCI tumour cell line growth inhibition, 48 h

SMILES | GI50 [µM] | TGI [µM]
COc1ccc(Nc2ncc(I)c(NCCCNC(=O)C3CCC3)n2)cc1 | 11.9 | 38.6
COC(=O)[C@H](Cc1cn(C)cn1)NC(=O)[C@H](CC(C)C)NC(=O)Nc1cc(C(F)(F)F)cc(C(F)(F)F)c1 | 3.71 | > 10
CC(C)CCN(CCC(C)C)CC(=O)Nc1ccc(S(=O)(=O)c2ccc(NC(=O)CN(CCC(C)C)CCC(C)C)cc2)cc1 | 2.39 | 7.52
COc1cc(OC)c(C(=O)/C=C/c2ccc(C#N)cc2)c(OC)c1 | 1.17 | 3.48
c1cc(OCCN2CCCC2)ccc1CNc1ccc2nc(CCC3CCCCC3)[nH]c2c1 | 1.47 | 3.63
O=C(Nc1ccc(I)cc1F)c1cc(Br)ccc1O | 0.401 | 2.33
CCc1cc2c(c(OCC(F)(F)F)c(C(=O)NC3CCN(C(=O)CO)CC3)n2C)c(=O)n1CC(=O)c1ccccc1 | 70.6 | > 100
CC(C)[C@@]12C[C@@H](OC(=O)C3CO3)[C@@](C)(O1)[C@@H]1CC[C@@H](C)[C@H]1[C@@H]2OC(=O)/C=C/c1ccccc1 (stereo not given in full) | 16.9 | 34.8
CCCCCN(CCCCC)CCC[C@@H](C)[C@H]1CC[C@H]2[C@@H]3[C@H](OCCCN)C[C@@H]4C[C@H](OCCCN)CC[C@]4(C)[C@H]3C[C@H](OCCCN)[C@]12C | 13 | 29.8
CCOC(=O)c1ccc(N2NC(=O)/C(=C/c3ccc([N+](=O)[O-])o3)C2=O)cc1 | 6.69 | 14.5
CCCN(CCC)c1ccc(/C=N/NC(=O)c2cccnc2)c(C)c1 | 2.95 | 15.1
Cn1cnc([N+](=O)[O-])c1S(=O)(=O)Oc1ccc(Cl)cc1 | 1.74 | 3.7
CCCCCCOC(=O)CC1=C(C)/C(=C/c2[nH]c(-c3ccc[nH]3)cc2OC)N=C1C | 0.155 | 1.43
CCOC(=O)c1c(NN2CCN(CC(F)(F)F)CC2)oc(/C=C2\C=Nc3ncccc32)c1O | 3.01 | 12
COc1ccc(C(=O)/C=C/c2cc(-c3ccc(OC)c(OC)c3)n[nH]2)cc1OC | 1.09 | 2.56
COc1ccc(Sc2[nH]c(C=O)c3ccccc23)cc1 | 1.42 | 24.3
Cc1ncc(C(=O)Nc2ccc(CN3CCN(C)CC3)c(C(F)(F)F)c2)cc1C#Cc1cnc(N)c2ccc(C#N)cc12 | 0.0613 | 5.13
CCOc1ccccc1/C=N\N=C(N/N=C/c1ccccc1OCC)N/N=C/c1ccccc1OCC | 1.54 | 7.16
COc1cc2c(cc1OC)[C@@H]1C(=O)c3ccc4c(c3O[C@@H]1CO2)C[C@H](C(C)C)O4 | < 0.0181 | 0.867
Clc1cc(Br)ccc1-c1ccc(CNCC2CCNCC2)o1 | 1.71 | 3.41
OCc1ccc(-c2nc(-c3ccc4c(c3)OCO4)c(-c3ccccn3)[nH]2)cc1 | > 25 | > 25
CCn1nc(C2CCN(C(=O)CCO)CC2)nc1-c1cnc(N)c(-c2nnc(C(C)(C)C)o2)n1 | 1.28 | 16.1
O=C1CN=C(c2ccc[nH]2)c2cc(Cl)ccc2N1 | > 100 | > 100

SMILES | GI50 [µM] | TGI [µM]
NC(=O)c1cn(C2CC(O)C(CO)O2)c2ncnc(N)c12 (stereo not given) | 0.486 | 3.77
COC(=O)CCc1n(Cc2ccc3ccccc3c2)c2ccccc2[n+]1Cc1ccc2ccccc2c1 | 0.196 | 1.13
C#CCNC1CCC(c2csc(C#C)n2)=C1C (stereo not given) | 3.17 | 18.8
Clc1ccc(-c2cnc3c(-c4ccnc(N5CCNCC5)c4)cnn3c2)cc1 | 1.54 | 2.99
O=C1OC2(c3ccc(O)cc3Oc3cc(O)ccc32)c2cccc3cccc1c23 | 16.1 | 34.3
CCCCCCCCCCCCCCCCn1cc[n+](C)c1 | 0.092 | 0.431
CC(C)(C)c1cc(C[P+](c2ccccc2)(c2ccccc2)c2ccccc2)cc(C(C)(C)C)c1O | 0.216 | 0.771
Cc1ccc(-c2cc(C(=O)Nc3ccc(S(=O)(=O)N4CCCCC4)cc3)[nH]n2)c(O)c1 | > 100 | > 100
Cc1[nH]c2ccccc2c1CO | 19.4 | 41.4
COC(=O)c1c2c(c(C)[n+]([O-])c1C)C(=O)C(NCc1ccccc1)=CC2=O | 1.3 | 3.15
Cc1[nH]c(C(=O)Nc2ccc(C(=O)NCCN)cc2OC(C)C)c(Cl)c1Cl | 1.91 | 3.67
COc1ccc(C2c3ccc4ccccc4c3Oc3ncn(CCCn4ccnc4)c(=N)c32)cc1OC (stereo not given) | 2.12 | 5.45
O=C(COc1ccccc1)NNc1ccccc1 | > 300 | > 300
CCN1/C(=C/C(C)=C/c2sc3ccc4ccccc4c3[n+]2CC)Sc2ccc3ccccc3c21 | 0.0156 | 0.156
Cc1cccc2c(=O)c3c(sc12)c(NCCCNCCO)nc1ccccc13 | 1.47 | 3.04
COc1ccc(C)c2sc(N(Cc3cccnc3)C(=O)c3ccc(C#N)cc3)nc12 | 35 | > 100
COc1cccc2c1C(=O)c1c(O)c3c(c(O)c1C2=O)C[C@](O)(C(=O)CO)C[C@H]3O[C@@H]1C[C@@H](NC(=O)CCCN(C)C2(c3ccc(F)cc3)CC3CCC2C3)[C@H](O)[C@@H](C)O1 (stereo not given in full) | 0.879 | 1.73
COc1cccc(/C=N\NC(=O)c2ccncc2)c1O | 2.32 | 11.2
Cc1nnn(C)c1-c1cnc2c3ccc(C(C)(C)O)cc3n([C@H](c3ccccc3)C3CCOCC3)c2c1 | < 0.01 | 8.91
COc1cc(CSc2nc3ccc(Cl)cc3c(=O)n2Cc2ccccc2)cc(OC)c1OC | 1.07 | 4.03
CCCCCSc1ccc2nc(NC(=O)OCC)sc2c1 | 0.564 | 14.8
CCCCN(CCCC)P(=O)(Oc1ccccc1)Oc1ccccc1 | 3.03 | 11.7
